Values quoted from earlier work, collected in US20030064122A1 (priority 2001, published 2003).

Tested on: nasal mucosa of men and women
Conditions: introduced to the nasal mucosa of men and women

COc1cc(CNC(=O)CCCCC=CC(C)C)ccc1O [Capsaicin, 8-Methyl-N-vanillyl-6-nonenamide]
amount shown to induce secretion, sneezing, and/or cough: 75 micrograms
